This note sets out measurements from patent publication US7553815B1, “Therapeutic use” (priority 1999, dated 2009).

Marks after values point to notes of the source that are not given here.

The assay concerns normal breast epithelium. Kind of assay: Normal breast xenografts: proliferation (Ki67 LI) and apoptosis (AI) (Example 2). In kind it is in vivo, human. A general note: Xenograft models place foreign cells or tissue in a host animal.

For the compound `COc1cc2ncnc(Nc3ccc(F)c(Cl)c3)c2cc1OCCCN1CCOCC1` [ZD1839, N-(3-chloro-4-fluorophenyl)-7-methoxy-6-(3-morpholinopropoxy)quinazolin-4-amine], the “Median LI/AI, Normal breast” value (Day 21, ratio of cell turnover) is 3.9***. Where the note is “normal breast, Day 28, 10-200 mg/kg”, the “Dose response of epithelial proliferation (Ki67 LI), FIG. 2” value is on record as “not in normal breast”.
